Data on three molecules can be found in patent US20060226082A1, “Methods for substrate and modulator screening using enzyme-reactor chromatography/tandem mass spectrometry” (McMaster University, priority 2005, published 2006).

The target in assay [1] is T1, adenosine deaminase (ADA, Type V, EC 3.5.4.4) entrapped in monolithic silica column (Bos taurus, UniProt P56658).
T1 construct: Adenosine deaminase (ADA, Type V, from bovine intestine, EC 3.5.4.4); purchased Sigma-Aldrich (Oakville, Ontario, Canada) Type V (catalogue number not given); host or cells: bovine intestine (tissue-derived)
T1 sequence (P56658 1-363): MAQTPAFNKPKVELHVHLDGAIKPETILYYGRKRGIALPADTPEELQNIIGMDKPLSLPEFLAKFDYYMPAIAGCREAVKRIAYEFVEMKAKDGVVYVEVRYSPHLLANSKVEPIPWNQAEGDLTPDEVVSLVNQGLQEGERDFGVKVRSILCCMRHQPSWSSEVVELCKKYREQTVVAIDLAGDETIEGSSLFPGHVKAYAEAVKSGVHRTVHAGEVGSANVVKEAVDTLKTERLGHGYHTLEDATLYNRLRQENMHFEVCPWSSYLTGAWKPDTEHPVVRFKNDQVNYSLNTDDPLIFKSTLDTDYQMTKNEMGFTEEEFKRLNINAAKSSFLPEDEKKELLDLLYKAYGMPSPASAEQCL
The experiment in a line: ADA enzyme reactor/MS quantitative determination of IC50, KI and Km. In kind it is biochemical, bovine. To be noted: for IC50: IC50 [EHNA]; for effect on ADA activity (substrate and product signals, P/S ratio): test compounds increased stepwise from 0 to 1000 nM, adenosine constant at 62.5 μM, 2 mM ammonium acetate. An excerpt: In an embodiment of the invention, if the P/S ratio is altered in favour of the substrate, then at least one of the one or more test compounds is an inhibitor of the protein. By altering the ratio of the flow between substrate and test compound channels, one can alter the compound concentrations and, thereby, obtain full inhibition curves. IC50 values are obtained by altering the flow in the substrate and substrate+inhibitor(s) channel in a stepwise fashion, thus allowing for variation of inhibitor concentration with constant substrate concentration. […] KI values are determined by extrapolation of IC50 values obtained at different substrate concentrations to the point of zero substrate concentration as per the equation: [formula] […] Note that for the enzyme reactor column, product concentration, rather than reaction rate, is monitored. Thus, the equation is valid only under conditions where the initial rate is proportional to product concentration. In the present system, it is assumed that this holds for conversion rates of 30% or less.
To assess the enzyme-reactor chromatography/tandem MS method for inhibitor screening, monolithic silica columns containing entrapped adenosine deaminase (ADA, EC 3.5.4.4) and Factor Xa were formed according to previously described methods.^25 ADA was used as the model enzyme owing to the relevance of this protein in immune disorders,^19 and because there are currently no high-throughput screening methods for this enzyme. An Eksigent nanoLC system was used to continuously infuse liquid through the column (10 μL/min total flowrate), with one channel containing adenosine (Pump A) and another containing adenosine plus 1 μM test compound(s) (Pump B), with all species present in 2 mM ammonium acetate buffer (FIG. 1, bottom).
(§1) Columns were fabricated in a fashion similar to that described previously.^25 ADA was exhaustively dialyzed against a solution containing 5 mM Bis-Tris.HCl, pH 6.5, with 10% (v/v) glycerol to remove all traces of phosphate buffer and adjust the pH. 40 mL of the resultant 40 mM ADA solution was then mixed with 20 mL of a solution containing 0.5 mM Bis-Tris.HCl, pH 6.5 with 50% (v/v) glycerol. DGS based sols were prepared by sonicating DGS with water (1 g+1 mL) at 0° C. for 15 min to hydrolyze the monomer, followed by filtration through a 0.2 mm filter. 100 mL of the resulting sol was rapidly mixed with the 60 mL ADA solution prepared above, followed by the rapid addition of 40 mL of 40% (w/v) poly(ethylene glycol) in water. The sol solution was then injected into an 80 cm length of 250 mm i.d., 360 mm o.d., polyimide coated fused silica tubing that was previously cleaned using 1 M NaOH. The liquid sol must be completely mixed, injected and stationary within the capillary by the time phase separation occurs, ˜2 minutes after mixing. After gelation (˜3 min), capillaries were looped such that both ends could be submerged in 50 mM Bis-Tris.HCl pH 6.5 and secured for storage. Columns were aged for a minimum of 5 days to achieve a relatively stable internal structure. After aging, 10 cm column segments were cut from poured columns, as required.
A 2 channel, Eksigent nanoLC pump was used for mobile phase delivery to a MDS Sciex Q-Trap Mass Spectrometer. Note that the Eksigent pump uses direct pneumatic pumping of mobile phase at μL/min rates, with no flow splitting. An Eksigent AS-1 48 vial autosampler was fitted with a 250 μL withdrawal syringe and a 150 μL loop of 250 μm i.d. fused silica tubing. Thus, only small volumes of inhibitor solutions (˜400 μL) are required for screening, although larger volumes can be loaded directly into the Eksigent pump reservoir (1-5 mL depending on configuration) for determination of IC50 values. […] Mobile phases were run directly into the MS system, without the introduction of an organic “make-up flow”. Mass spectrometer control and data acquisition was done using Analyst v.1.4 software.

The target in assay [2] is T1, adenosine deaminase (ADA, Type V, EC 3.5.4.4) entrapped in monolithic silica column. Nature of the assay: ADA enzyme reactor/MS mixture screening (primary and secondary screen). Conditions: each compound individually, 500 nM and 10 μM, 200 μM adenosine. The class given is biochemical, bovine. As to the method:
as §1, with “required. […]” for “required.”

The target in assay [3] is T2, adenosine deaminase (ADA) (Homo sapiens, UniProt P00813).
T2 sequence (P00813 1-363): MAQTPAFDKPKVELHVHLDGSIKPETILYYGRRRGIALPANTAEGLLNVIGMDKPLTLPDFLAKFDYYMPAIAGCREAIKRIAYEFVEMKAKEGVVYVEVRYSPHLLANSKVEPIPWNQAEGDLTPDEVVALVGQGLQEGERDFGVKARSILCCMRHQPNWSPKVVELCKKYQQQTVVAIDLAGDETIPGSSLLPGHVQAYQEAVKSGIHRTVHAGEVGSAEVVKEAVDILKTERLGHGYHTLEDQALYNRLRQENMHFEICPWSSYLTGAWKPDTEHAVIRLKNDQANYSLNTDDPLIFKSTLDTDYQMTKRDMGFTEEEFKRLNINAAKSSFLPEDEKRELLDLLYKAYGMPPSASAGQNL
Conditions: literature value; read-out: published KI value; cited from earlier work.

Molecules are shown by their SMILES. Entries after “also recorded” stand apart in the source; their conditions may differ.

With `CCCCCCC(C(C)O)n1cnc2c(N)ncnc21` (stereo not drawn) [EHNA, erythro-9-(2-hydroxy-3-nonyl)adenine], the Ki in assay [1] is 15.7 ± 3.5 nM; in assay [3], 6.5 nM. For the same molecule, the IC50 was determined as 29.4 nM in assay [1] (EHNA alone (closed circles, FIG. 8A)) and 29.7 nM in assay [1] (EHNA in a mixture (open circles, FIG. 8A)). In assay [1], the “effect on ADA activity (substrate and product signals, P/S ratio)” value is “concentration-dependent decrease in product and increase in substrate signals; also recorded: concentration-dependent decrease in ADA activity”. Also, the “ADA inhibition in secondary screen (individual compounds of active mixture)” value in assay [2] was “active, inhibitory compound; also recorded: inhibitor of ADA”.
Take `Nc1nc2ncc(CNc3ccc(C(=O)N[C@@H](CCC(=O)O)C(=O)O)cc3)nc2c(=O)[nH]1` [folic acid]: in assay [1], the “effect on ADA activity (substrate and product signals, P/S ratio)” value is reported as “no significant effect”.
Turning to `Nc1ncnc2c1ncn2[C@@H]1O[C@H](CO)[C@@H](O)[C@H]1O` [adenosine], the Vmax in assay [1] (Michaelis-Menten analysis of inosine production rate (FIG. 6b)) is recorded as 734 pmole/min/column.

A word on the Ki: it is a dissociation constant, usually derived from enzyme kinetics or from competition with a known ligand. By IC50 is commonly meant the point on the concentration scale where inhibition reaches its midpoint.
